Measured values: patent US20250213707A1, “COMPOUND FOR INCREASING EFFICACY OF ONCOLYTIC VIRUSES” (ABLEVIA BIOTECH GMBH, priority 2022, published 2025)

How the values were obtained:
mAb ADK8 = assay: Epitope mapping of mAb ADK8 against AAV peptides; assay type: binding, mice
Text: Monoclonal antibody ADK8 was generated by immunizing mice with AAV8 capsids. It is directed against the assembled AAV8 capsid (Sonntag et al, 2011). […] Moreover, the binding of AAV8 to the nuclear membrane as well as the nuclear entry were abrogated following neutralization by ADK8. […] ADK8 also cross-reacts with capsid proteins from other AAV serotypes such as AAV1, AAV3, AAV7 (Mietzsch et al, 2014) and was therefore chosen as an example from which general conclusions about the present invention can be drawn.
As for the other antibodies (see examples above), several clusters were identified, delineating regions from which preferred peptides can be deduced. Most preferably, the peptides aligned below according to their binding strengths can be used for selective antibody depletion and detection as hereinabove.

[1] = tested on: IgG from human donors (anti-AAV antibodies); assay: Screen for anti-AAV antibodies in human sera based on cyclic 14-amino-acid AAV peptides on microarrays (Table 2); assay type: binding; set-up: key: X: the deduplicated aggregate of the respective top 50 peptide hits for each donor was compiled and designated as group I; conditions: human donor IgG; circularized AAV peptides; top 50 peptide hits for each donor
Experimental: More than 1200 cyclic peptides derived from the sequences of human and rhesus monkey AAV sequences and artificial AAV sequences according to Table 2 and with a sequence length of 14 amino-acids each were synthesized.
Samples obtained from human donors were screened for antibodies against these AAV-derived peptides immobilized on microarrays. To this end, IgG was prepared from blood obtained from the human donors by protein G purification. Each IgG sample was incubated with the peptide microarrays and Ig binding signals were detected by fluorescence. All antibody binding signals to the peptides on the arrays were background subtracted and ranked for each sample and a deduplicated aggregate of the respective top 250 peptide hits for each donor with the corresponding protein sequence of origin (as obtained from UniProt or other sources) was compiled (designated as group II). Further, the deduplicated aggregate of the respective top 50 peptide hits for each donor was compiled and designated as group I.
Altogether, group I contains 47 distinct peptide hits (assigned to the corresponding AAV vectors in Table 2) and group II yielded 172 distinct peptide hits. Evidently, group I is a subset of group II.

[2] = tested on: IgG from human donors (anti-AAV antibodies); assay: Screen for anti-AAV antibodies in human sera, 2452 linear 15-amino-acid AAV peptides on microarrays (Table 1); assay type: binding; set-up: key to group I: X: the deduplicated aggregate of the respective top 10 peptide hits for each donor was compiled and designated as group I; key to group II: X: the deduplicated aggregate of the respective top 25 peptide hits for each donor was compiled and designated as group II; key to group III: X: the deduplicated aggregate of the respective top 50 peptide hits for each donor was compiled and designated as group III; conditions: human donor IgG binding to linear 15-amino-acid AAV peptides on microarray, fluorescence; for group II: membership in deduplicated aggregate of top 25 peptide hits for each donor; for group III: membership in deduplicated aggregate of top 50 peptide hits for each donor; for group I: membership in deduplicated aggregate of top 10 peptide hits for each donor
Summary of the method: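 Protein G-purified IgG from human donor blood incubated with microarrays of 2452 linear 15-mer peptides from 16 AAVs; binding read by fluorescence. Background-subtracted signals ranked per donor, with top 10, 25, 50 and 250 hits pooled and deduplicated into groups I-IV.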

[3] = tested on: polyclonal antibody ab6982; assay: Epitope mapping of polyclonal antibody ab6982 against cyclic peptides of Ad5 fiber and hexon (peptide array); assay type: binding, rabbits; conditions: cyclic peptides of fiber protein (clusters 1-7)

Substance | group I [1] | further results
313 (VYLQGPI) [compound 313] | – | peptide number according to binding strength (mAb ADK8): 02
315 (DVYLQGP) [compound 315] | – | peptide number according to binding strength (mAb ADK8): 05
317 (LQGPIWA) [compound 317] | – | peptide number according to binding strength (mAb ADK8): 12
1892 (DSQWLGDRVITTST; REGION 1..14: note = peptide derived from viral capsid protein) [compound 1892] | X | –
1893 (DTNGVYSEPRPIGT; REGION 1..14: note = peptide derived from viral capsid protein) [compound 1893] | X | –
1895 (ANNLTSTVQIFADS; REGION 1..14: note = peptide derived from viral capsid protein) [compound 1895] | X | –
1896 (KIFNIQVKEVTTSN; REGION 1..14: note = peptide derived from viral capsid protein) [compound 1896] | X | –
1897 (GNTSQQQTDRNAFY; REGION 1..14: note = peptide derived from viral capsid protein) [compound 1897] | X | –
1898 (LEDNLSEGIREWWD; REGION 1..14: note = peptide derived from viral capsid protein) [compound 1898] | X | –
1899 (SESVPDPQPIGEPP; REGION 1..14: note = peptide derived from viral capsid protein) [compound 1899] | X | –
1900 (LIKNTPVPADPPTT; REGION 1..14: note = peptide derived from viral capsid protein) [compound 1900] | X | –
1901 (PQYGYLTLNNGSQA; REGION 1..14: note = peptide derived from viral capsid protein) [compound 1901] | X | –
1902 (DEEEIRTTNPVATE; REGION 1..14: note = peptide derived from viral capsid protein) [compound 1902] | X | –
1903 (NYNKSVNVDFTVDT; REGION 1..14: note = peptide derived from viral capsid protein) [compound 1903] | X | –
1904 (YHLNGRDSLVNPGP; REGION 1..14: note = peptide derived from viral capsid protein) [compound 1904] | X | –
1907 (IFNIQVKEVTTSNG; REGION 1..14: note = peptide derived from viral capsid protein) [compound 1907] | X | –
1910 (FNIQVKEVTTNDGV; REGION 1..14: note = peptide derived from viral capsid protein) [compound 1910] | X | –
1912 (PQILIKNTPVPADP; REGION 1..14: note = peptide derived from viral capsid protein) [compound 1912] | X | –
1913 (QLKAGDNPYLRYNH; REGION 1..14: note = peptide derived from viral capsid protein) [compound 1913] | X | –
1914 (SFITQYSTGQVSVE; REGION 1..14: note = peptide derived from viral capsid protein) [compound 1914] | X | –
1917 (HYFGYSTPWGYFDF; REGION 1..14: note = peptide derived from viral capsid protein) [compound 1917] | X | –
1918 (APGKKRPVDQSPQE; REGION 1..14: note = peptide derived from viral capsid protein) [compound 1918] | X | –
1919 (GKKRPVDQSPQEPD; REGION 1..14: note = peptide derived from viral capsid protein) [compound 1919] | X | –

Substance | group I [1] | further results
1920 (KTAPGKKRPVDQSP; REGION 1..14: note = peptide derived from viral capsid protein) [compound 1920] | X | –
1921 (PEIQYTSNYNKSVN; REGION 1..14: note = peptide derived from viral capsid protein) [compound 1921] | X | –
1922 (SESVPDPQPLGEPP; REGION 1..14: note = peptide derived from viral capsid protein) [compound 1922] | X | –
1923 (TAPGKKRPVDQSPQ; REGION 1..14: note = peptide derived from viral capsid protein) [compound 1923] | X | –
1924 (YDQQLKAGDNPYLK; REGION 1..14: note = peptide derived from viral capsid protein) [compound 1924] | X | –
1926 (DKAYDRQLDSGDNP; REGION 1..14: note = peptide derived from viral capsid protein) [compound 1926] | X | –
1927 (GTNTMATGSGAPMA; REGION 1..14: note = peptide derived from viral capsid protein) [compound 1927] | X | –
1928 (DKAYDQQLQAGDNP; REGION 1..14: note = peptide derived from viral capsid protein) [compound 1928] | X | –
1929 (TESVPDPQPIGEPP; REGION 1..14: note = peptide derived from viral capsid protein) [compound 1929] | X | –
1932 (DEEEIKATNPVATE; REGION 1..14: note = peptide derived from viral capsid protein) [compound 1932] | X | –
1933 (DKDKFFPMSGVMIF; REGION 1..14: note = peptide derived from viral capsid protein) [compound 1933] | X | –
1934 (LQQQNTAPQIGTVN; REGION 1..14: note = peptide derived from viral capsid protein) [compound 1934] | X | –
1935 (EEEIKTTNPVATEE; REGION 1..14: note = peptide derived from viral capsid protein) [compound 1935] | X | –
1937 (DDEDKFFPMSGVMI; REGION 1..14: note = peptide derived from viral capsid protein) [compound 1937] | X | –
1938 (PLVDQYLYRFVSTN; REGION 1..14: note = peptide derived from viral capsid protein) [compound 1938] | X | –
TTSANNLLFTSEEE [SEQ ID NO: 2056] | – | group II [2]: X; group III [2]: X; antibody binding signal ranking from the microarray experiment [3]: 078
TTSGETLNQGNAAT [SEQ ID NO: 2057] | – | group II [2]: X; group III [2]: X; antibody binding signal ranking from the microarray experiment [3]: 079
TTSGTTNQSRLLFS (REGION 1..14: note = peptide derived from viral capsid protein) [SEQ ID NO: 1997] | – | group I [2]: X; group II [2]: X; group III [2]: X; antibody binding signal ranking from the microarray experiment [3]: 041
TVQIFADSSYELPY (REGION 1..14: note = peptide derived from viral capsid protein) [SEQ ID NO: 2043] | – | group II [2]: X; group III [2]: X; antibody binding signal ranking from the microarray experiment [3]: 136
TVQIFADSTYELPY [SEQ ID NO: 2039] | – | group II [2]: X; group III [2]: X; antibody binding signal ranking from the microarray experiment [3]: 093
TVQVFTDSDYQLPY [SEQ ID NO: 2019] | – | group II [2]: X; group III [2]: X; antibody binding signal ranking from the microarray experiment [3]: 013
VMITDEEEIRTTNP (REGION 1..14: note = peptide derived from viral capsid protein) [SEQ ID NO: 1998] | – | group I [2]: X; group II [2]: X; group III [2]: X; antibody binding signal ranking from the microarray experiment [3]: 052
YNLQEIVPGSVWME [SEQ ID NO: 2063] | – | group II [2]: X; group III [2]: X; antibody binding signal ranking from the microarray experiment [3]: 143
